The structures appear in SMILES notation. pIC50: −log10 of the molar value.

One assay deals with Colo205 tumor cells. The assay is described as follows: Cell growth inhibition assay (CellTiter-Glo), Colo205. Format: cell-based, Human. To be noted: Homo sapiens, COLO 205, 72 h; 3 days incubation. In outline:
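Cells plated at 500 cells/well in their growth media, dosed next day with nine-step 1:3 compound dilutions (final DMSO 0.2%), then incubated 3 days at 37° C, 5% CO2. Total ATP read by CellTiter-Glo luminescence as a surrogate for cell number; IC50 interpolated from 4-parameter fit versus DMSO controls.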
A general note: ATP-based viability assays read luminescence as a measure of living cells.

The test system of the next assay is SK-MEL-3 tumor cells. The assay is described as follows: Cell growth inhibition assay (CellTiter-Glo), SK-MEL-3. Format: cell-based, Human. The following applies: for pIC50: Homo sapiens, SK-MEL3. In outline: (§1)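 Cells seeded at 500/well (HN5 and HT-29 in high-glucose DMEM/10% FBS; A375P F11s in RPMI/10% FBS with pyruvate; SK-MEL-3 in McCoy's 5A/15% FBS), then exposed next day to 1:3 serial compound dilutions (0.2% DMSO) for 3 days at 37° C. CellTiter-Glo luminescence measured ATP; IC50 derived by 4-parameter fit.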

In a further assay the test system is A375P F11s tumor cells. Kind of assay: Cell growth inhibition assay (CellTiter-Glo), A375P F11s. Format: cell-based, Human. To be noted: for pIC50: Homo sapiens. In outline:
as §1

In the next assay the target is T1, ErbB2 (Homo sapiens, UniProt P04626).
T1 construct: made in house; host or cells: baculovirus expression system
Kind of assay: ErbB-2 substrate phosphorylation assay (HTRF). It is filed as biochemical. In outline: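 Baculovirus-expressed EGFR (0.8 nM) or ErbB2 (10 nM) in enzyme mix, preincubated 1 h at 20 °C with compound (0.00027–47.6 μM final), then 90 min at 20 °C with substrate mix of 20 μM ATP, 0.8 uM biotinylated Peptide C, MnCl2, MOPS pH 7.5. Phosphotyrosine by HTRF; pIC50 reported.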
(In general: Time-resolved FRET reads energy transfer from a long-lived donor to a nearby acceptor.)

T1 sequence (P04626 23-1255): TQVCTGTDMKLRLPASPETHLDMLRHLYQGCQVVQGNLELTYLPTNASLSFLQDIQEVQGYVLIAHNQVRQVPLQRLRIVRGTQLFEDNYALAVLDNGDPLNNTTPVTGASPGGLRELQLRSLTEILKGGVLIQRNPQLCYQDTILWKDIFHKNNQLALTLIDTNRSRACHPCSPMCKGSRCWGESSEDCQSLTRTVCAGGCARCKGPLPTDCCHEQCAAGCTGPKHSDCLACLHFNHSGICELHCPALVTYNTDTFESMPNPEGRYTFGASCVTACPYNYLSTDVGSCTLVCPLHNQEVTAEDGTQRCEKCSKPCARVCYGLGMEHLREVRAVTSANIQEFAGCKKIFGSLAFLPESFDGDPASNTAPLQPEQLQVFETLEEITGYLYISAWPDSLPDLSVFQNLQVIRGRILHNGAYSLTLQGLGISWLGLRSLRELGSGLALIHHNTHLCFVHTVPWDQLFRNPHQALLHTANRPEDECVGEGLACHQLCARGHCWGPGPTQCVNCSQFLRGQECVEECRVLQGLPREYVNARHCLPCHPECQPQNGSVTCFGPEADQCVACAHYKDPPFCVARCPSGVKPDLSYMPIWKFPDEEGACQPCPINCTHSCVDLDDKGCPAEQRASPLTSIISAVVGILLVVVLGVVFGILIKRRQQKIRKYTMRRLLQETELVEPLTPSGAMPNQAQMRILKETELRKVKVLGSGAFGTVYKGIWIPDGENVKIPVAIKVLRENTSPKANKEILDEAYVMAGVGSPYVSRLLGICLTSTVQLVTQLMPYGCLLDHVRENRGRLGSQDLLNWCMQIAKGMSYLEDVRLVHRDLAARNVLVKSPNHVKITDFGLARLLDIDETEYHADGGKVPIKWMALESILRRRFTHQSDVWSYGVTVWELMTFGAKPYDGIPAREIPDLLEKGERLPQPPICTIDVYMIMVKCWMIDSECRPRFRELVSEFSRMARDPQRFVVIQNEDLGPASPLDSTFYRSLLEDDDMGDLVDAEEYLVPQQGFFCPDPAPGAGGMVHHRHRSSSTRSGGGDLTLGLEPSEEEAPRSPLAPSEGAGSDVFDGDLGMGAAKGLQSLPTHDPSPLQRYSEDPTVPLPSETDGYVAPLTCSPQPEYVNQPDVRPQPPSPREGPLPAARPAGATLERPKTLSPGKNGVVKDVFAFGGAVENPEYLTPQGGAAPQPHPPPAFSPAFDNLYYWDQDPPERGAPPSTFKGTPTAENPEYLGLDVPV

Turning to `O=S(=O)(Nc1cc(-c2nc(N3CCCC3)oc2-c2ccnc(Nc3ccc(N4CCN(CCF)CC4)c(F)c3)n2)ccc1F)c1c(F)cccc1F` [Example 114], the negative-log IC50 (pIC50) with Colo205 tumor cells, in the assay with A375P F11s tumor cells and at ErbB2 was 6.00 to 7.00 in each case. Also, in the assay on SK-MEL-3 tumor cells, the “Activity in SK-MEL-3 Tumor Cells” value is “+ (activity of >1 μM in SK-MEL-3 tumor cells)”.

For the molecule `Cc1cc(Nc2nccc(-c3sc(C(C)C)nc3-c3ccc(F)c(NS(=O)(=O)c4c(F)cccc4F)c3)n2)ccn1` [Example 116], the negative logarithm of the IC50 (pIC50) (commonly −log10 of the IC50, conventionally taken in molar units) is above 7.00 in the assay with Colo205 tumor cells, 6.00 to 7.00 in the assay on SK-MEL-3 tumor cells, 6.00 to 7.00 with A375P F11s tumor cells and 6.00 to 7.00 on ErbB2.

On to `CC(C)c1nc(-c2ccc(F)c(NS(=O)(=O)c3c(F)cccc3F)c2)c(-c2ccnc(Nc3ccnc(N4CCOCC4)c3)n2)s1` [Example 117], for which the pIC50 with Colo205 tumor cells was above 7.00; with SK-MEL-3 tumor cells, 6.00 to 7.00; with A375P F11s tumor cells it was 6.00 to 7.00; against ErbB2 it was above 7.00.

For the molecule `COc1cc(N2CCN(CCS(C)(=O)=O)CC2)c(C)cc1Nc1nccc(-c2sc(C(C)(C)C)nc2-c2cccc(NS(=O)(=O)c3c(F)cccc3F)c2)n1` [Example 120], the pIC50 with Colo205 tumor cells is above 7.00; in the assay with SK-MEL-3 tumor cells it was above 7.00; in the assay on A375P F11s tumor cells, 6.00 to 7.00; against ErbB2, above 7.00.

Consider `O=S(=O)(Nc1cc(-c2nc(N3CCOCC3)sc2-c2ccnc(Nc3ccc(N4CCOCC4)nc3)n2)ccc1F)c1c(F)cccc1F` [Example 121], for which the pIC50 was above 7.00 with Colo205 tumor cells, 6.00 to 7.00 in the assay with SK-MEL-3 tumor cells, 6.00 to 7.00 in the assay with A375P F11s tumor cells and 6.00 to 7.00 at ErbB2.

With `O=S(=O)(Nc1cccc(-c2nc(N3CCOCC3)sc2-c2ccnc(Nc3ccc(N4CCOCC4)nc3)n2)c1F)c1c(F)cccc1F` [Example 122], the pIC50 is above 7.00 with Colo205 tumor cells, above 7.00 with SK-MEL-3 tumor cells, above 7.00 in the assay with A375P F11s tumor cells and 6.00 to 7.00 against ErbB2.

In the case of `CC(C)c1nc(-c2cccc(NS(=O)(=O)c3c(F)cccc3F)c2F)c(-c2ccnc(Nc3ccc(N4CCOCC4)nc3)n2)s1` [Example 123], the negative logarithm of the IC50 (pIC50) in the assay on Colo205 tumor cells is above 7.00; with SK-MEL-3 tumor cells it was above 7.00; with A375P F11s tumor cells, above 7.00; against ErbB2, below 6.00.

Consider `Cc1cc(N2CCOCC2)ncc1Nc1nccc(-c2sc(N3CCCC3)nc2-c2cccc(NS(=O)(=O)c3c(F)cccc3F)c2)n1` [Example 124], for which the negative-log IC50 (pIC50) in the assay with Colo205 tumor cells and at ErbB2 was 6.00 to 7.00 throughout. Besides, in the assay on SK-MEL-3 tumor cells, the “Activity in SK-MEL-3 Tumor Cells” value is reported as “+ (activity of >1 μM in SK-MEL-3 tumor cells)”. In addition, the “Activity in A375P F11s Tumor Cells” value in the assay with A375P F11s tumor cells is “+ (activity of >1 μM in A375P F11s tumor cells)”.

Take `CN1CCN(c2nc(-c3ccc(F)c(NS(=O)(=O)c4c(F)cccc4F)c3)c(-c3ccnc(Nc4ccc(N5CCOCC5)nc4)n3)s2)CC1` [Example 126]: the pIC50 with Colo205 tumor cells was above 7.00; in the assay with SK-MEL-3 tumor cells, 6.00 to 7.00; with A375P F11s tumor cells, 6.00 to 7.00; against ErbB2 it was 6.00 to 7.00.

For the molecule `O=S(=O)(Nc1cc(-c2nc(N3CCOCC3)sc2-c2ccnc(Nc3ccc4c(c3)OCCO4)n2)ccc1F)c1c(F)cccc1F` [Example 127], the pIC50 with Colo205 tumor cells and against ErbB2 was 6.00 to 7.00 each time. Moreover, in the assay with SK-MEL-3 tumor cells, the “Activity in SK-MEL-3 Tumor Cells” value is “+ (activity of >1 μM in SK-MEL-3 tumor cells)”. The “Activity in A375P F11s Tumor Cells” value in the assay with A375P F11s tumor cells is “+ (activity of >1 μM in A375P F11s tumor cells)”.

With `COc1cc(N2CCN(CCS(C)(=O)=O)CC2)c(C)cc1Nc1nccc(-c2sc(N3CCOCC3)nc2-c2cccc(NS(=O)(=O)c3c(F)cccc3F)c2)n1` [Example 128], the negative-log IC50 (pIC50) is above 7.00 in the assay on Colo205 tumor cells, above 7.00 with SK-MEL-3 tumor cells, 6.00 to 7.00 with A375P F11s tumor cells and above 7.00 at ErbB2.

As to `CS(=O)(=O)c1cccc(Nc2nccc(-c3sc(N4CCOCC4)nc3-c3cccc(NS(=O)(=O)c4c(F)cccc4F)c3F)n2)c1` [Example 130], the negative-log IC50 (pIC50) with Colo205 tumor cells is above 7.00; in the assay on SK-MEL-3 tumor cells, above 7.00; in the assay with A375P F11s tumor cells, above 7.00; against ErbB2 it was 6.00 to 7.00.

As for `Cc1cc(N2CCN(CCS(C)(=O)=O)CC2)ncc1Nc1nccc(-c2sc(C(C)C)nc2-c2cccc(NS(=O)(=O)c3c(F)cccc3F)c2)n1` [Example 131], the pIC50 was above 7.00 in the assay with Colo205 tumor cells, above 7.00 in the assay on SK-MEL-3 tumor cells, above 7.00 with A375P F11s tumor cells and 6.00 to 7.00 at ErbB2.

Take `Cc1nc(-c2cccc(NS(=O)(=O)c3c(F)cccc3F)c2)c(-c2ccnc(Nc3ccc(N4CCOCC4)nc3)n2)s1` [Example 133]: the pIC50 with Colo205 tumor cells is above 7.00; with SK-MEL-3 tumor cells, above 7.00; in the assay with A375P F11s tumor cells it was above 7.00; against ErbB2, below 6.00.

As to `CS(=O)(=O)c1cccc(Nc2nccc(-c3sc(N4CCOCC4)nc3-c3cccc(NS(=O)(=O)c4c(F)cccc4F)c3Cl)n2)c1` [Example 145], the pIC50 was above 7.00 with Colo205 tumor cells, above 7.00 in the assay on SK-MEL-3 tumor cells, above 7.00 in the assay with A375P F11s tumor cells and below 6.00 on ErbB2.

Take `O=S(=O)(Nc1cccc(-c2nc(N3CCOCC3)sc2-c2ccnc(Nc3ccc(N4CCOCC4)nc3)n2)c1Cl)c1c(F)cccc1F` [Example 146]: the pIC50 is above 7.00 in the assay on Colo205 tumor cells, above 7.00 with SK-MEL-3 tumor cells, above 7.00 with A375P F11s tumor cells and below 6.00 against ErbB2.

On to `O=S(=O)(Nc1cccc(-c2nc(N3CCCCC3)sc2-c2ccnc(Nc3ccc(N4CCOCC4)nc3)n2)c1)c1c(F)cccc1F` [Example 151], for which the pIC50 was above 7.00 with Colo205 tumor cells, above 7.00 in the assay with SK-MEL-3 tumor cells, above 7.00 in the assay with A375P F11s tumor cells and below 6.00 at ErbB2.

As to `CCNc1nc(-c2cccc(NS(=O)(=O)c3c(F)cccc3F)c2)c(-c2ccnc(Nc3ccc(N4CCOCC4)nc3)n2)s1` [Example 152], the negative logarithm of the IC50 (pIC50) was above 7.00 in the assay on Colo205 tumor cells, above 7.00 in the assay on SK-MEL-3 tumor cells, above 7.00 in the assay with A375P F11s tumor cells and 6.00 to 7.00 against ErbB2.

Turning to `O=S1(=O)Cc2ccc(Nc3nccc(-c4sc(N5CCOCC5)nc4-c4cccc(NS(=O)(=O)c5c(F)cccc5F)c4F)n3)cc2C1` [Example 155], the pIC50 in the assay with Colo205 tumor cells is above 7.00; in the assay on SK-MEL-3 tumor cells it was above 7.00; with A375P F11s tumor cells, above 7.00; on ErbB2, 6.00 to 7.00.

With `COc1ccc(S(C)(=O)=O)cc1Nc1nccc(-c2sc(N3CCOCC3)nc2-c2cccc(NS(=O)(=O)c3c(F)cccc3F)c2F)n1` [Example 157], the pIC50 with Colo205 tumor cells is above 7.00; with SK-MEL-3 tumor cells, above 7.00; in the assay on A375P F11s tumor cells it was above 7.00; against ErbB2, below 6.00.

On to `Cc1cc(Nc2nccc(-c3sc(C(C)(C)C)nc3-c3cccc(NS(=O)(=O)c4c(F)cccc4F)c3F)n2)ccn1` [Example 159], for which the pIC50 with Colo205 tumor cells was above 7.00; in the assay on SK-MEL-3 tumor cells, above 7.00; with A375P F11s tumor cells, above 7.00; at ErbB2 it was 6.00 to 7.00.

As for `O=S(=O)(Nc1cccc(-c2ncsc2-c2ccnc(Nc3ccc(N4CCOCC4)nc3)n2)c1)c1c(F)cccc1F` [Example 162], the pIC50 is above 7.00 in the assay on Colo205 tumor cells, above 7.00 with SK-MEL-3 tumor cells, above 7.00 in the assay with A375P F11s tumor cells and below 6.00 against ErbB2.

Turning to `CCNc1nc(-c2ccc(F)c(NS(=O)(=O)c3c(F)cccc3F)c2)c(-c2ccnc(Nc3ccc(N4CCOCC4)nc3)n2)s1` [Example 166], the pIC50 in the assay on Colo205 tumor cells is 6.00 to 7.00; with SK-MEL-3 tumor cells, 6.00 to 7.00; with A375P F11s tumor cells, 6.00 to 7.00; against ErbB2, above 7.00.

`CS(=O)(=O)CCN1CCN(c2ccc(Nc3nccc(-c4oc(N5CCCC5)nc4-c4cccc(NS(=O)(=O)c5c(F)cccc5F)c4F)n3)cc2F)CC1` [Example 167]: the pIC50 with Colo205 tumor cells, with SK-MEL-3 tumor cells, in the assay with A375P F11s tumor cells and against ErbB2 was above 7.00 throughout.

Source of the values: patent US20110319392A1, “Thiazole Sulfonamide And Oxazole Sulfonamide Kinase Inhibitors” (priority 2009, published 2011).
